Activity calls are given as the source filed them. The calls are words filed in the database; no cut-off is given here.
Assays:
Photorhabdus luminescens [1] = assay: Antibacterial activity against Photorhabdus luminescens at 10 mg/ml after 24 hrs by disc diffusion method; assay type: functional, organism-based
Escherichia coli [2] = assay: Antibacterial activity against Escherichia coli at 6.25 to 200 ug/ml after 24 hrs by microwell dilution method; assay type: functional, organism-based
Candida tropicalis = assay: Antifungal activity against Candida tropicalis at 10 mg/ml after 48 hrs by disc diffusion method; assay type: functional, organism-based
[3] = test system: Acinetobacter radioresistens; assay: Antibacterial activity against Acinetobacter radioresistens at 6.25 to 200 ug/ml after 24 hrs by microwell dilution method; assay type: functional, organism-based
Staphylococcus cohnii [4] = assay: Antibacterial activity against Staphylococcus cohnii at 10 mg/ml after 24 hrs by disc diffusion method; assay type: functional
Staphylococcus cohnii [5] = assay: Antibacterial activity against Staphylococcus cohnii at 6.25 to 200 ug/ml after 24 hrs by microwell dilution assay; assay type: functional, organism-based
Klebsiella aerogenes [6] = assay: Antibacterial activity against Enterobacter aerogenes at 10 mg/ml after 24 hrs by disc diffusion method; assay type: functional, organism-based
Pichia membranifaciens = assay: Antifungal activity against Pichia membranifaciens at 10 mg/ml after 48 hrs by disc diffusion method; assay type: functional, organism-based
Hepacivirus hominis = assay: Inhibition of HCV N-terminal His-tagged NS5B RNA dependent RNA polymerase expressed in Escherichia coli DH5alpha using poly rA/U12 as primer at 200 uM after 60 mins by liquid scintillation counting
Escherichia coli [7] = assay: Antibacterial activity against Escherichia coli at 10 mg/ml after 24 hrs by disc diffusion method; assay type: functional, organism-based
Staphylococcus aureus [8] = assay: Antibacterial activity against Staphylococcus aureus at 6.25 to 200 ug/ml after 24 hrs by microwell dilution assay; assay type: functional, organism-based
Candida parapsilosis = assay: Antifungal activity against Candida parapsilosis at 10 mg/ml after 48 hrs by disc diffusion method; assay type: functional, organism-based
Salmonella paratyphi [9] = assay: Antibacterial activity against Salmonella paratyphi at 10 mg/ml after 24 hrs by disc diffusion method; assay type: functional, organism-based; settings: Salmonella enterica subsp. enterica serovar Paratyphi A
Candida albicans = assay: Antifungal activity against Candida albicans at 10 mg/ml after 48 hrs by disc diffusion method; assay type: functional, organism-based
Photorhabdus luminescens [10] = assay: Antibacterial activity against Photorhabdus luminescens at 6.25 to 200 ug/ml after 24 hrs by microwell dilution method; assay type: functional, organism-based
Kluyveromyces marxianus = assay: Antifungal activity against Kluyveromyces marxianus at 10 mg/ml after 48 hrs by disc diffusion method; assay type: functional, organism-based
[11] = test system: Schwanniomyces occidentalis; assay: Antifungal activity against Schwanniomyces occidentalis at 10 mg/ml after 48 hrs by disc diffusion method; assay type: functional, organism-based
Micrococcus luteus [12] = assay: Antibacterial activity against Micrococcus luteus at 10 mg/ml after 24 hrs by disc diffusion method; assay type: functional, organism-based
Proteus vulgaris [13] = assay: Antibacterial activity against Proteus vulgaris at 10 mg/ml after 24 hrs by disc diffusion method; assay type: functional, organism-based
Klebsiella aerogenes [14] = assay: Antibacterial activity against Enterobacter aerogenes at 6.25 to 200 ug/ml after 24 hrs by microwell dilution method; assay type: functional, organism-based
Nakaseomyces glabratus = assay: Antifungal activity against Candida glabrata at 10 mg/ml after 48 hrs by disc diffusion method; assay type: functional, organism-based
Proteus vulgaris [15] = assay: Antibacterial activity against Proteus vulgaris at 6.25 to 200 ug/ml after 24 hrs by microwell dilution method; assay type: functional, organism-based
Pseudomonas aeruginosa [16] = assay: Antibacterial activity against Pseudomonas aeruginosa at 6.25 to 200 ug/ml after 24 hrs by microwell dilution method; assay type: functional, organism-based
Staphylococcus aureus [17] = assay: Antibacterial activity against Staphylococcus aureus at 10 mg/ml after 24 hrs by disc diffusion method; assay type: functional
[18] = test system: Acinetobacter radioresistens; assay: Antibacterial activity against Acinetobacter radioresistens at 10 mg/ml after 24 hrs by disc diffusion method; assay type: functional, organism-based
Salmonella paratyphi [19] = assay: Antibacterial activity against Salmonella paratyphi at 6.25 to 200 ug/ml after 24 hrs by microwell dilution method; assay type: functional, organism-based; settings: Salmonella enterica subsp. enterica serovar Paratyphi A
Pseudomonas aeruginosa [20] = assay: Antibacterial activity against Pseudomonas aeruginosa at 10 mg/ml after 24 hrs by disc diffusion method; assay type: functional, organism-based
Micrococcus lylae [21] = assay: Antibacterial activity against Micrococcus lylae at 6.25 to 200 ug/ml after 24 hrs by microwell dilution method; assay type: functional, organism-based
Aspergillus = assay: Antifungal activity against Aspergillus at 10 mg/ml after 72 hrs by disc diffusion method; assay type: functional, organism-based
Micrococcus lylae [22] = assay: Antibacterial activity against Micrococcus lylae at 10 mg/ml after 24 hrs by disc diffusion method; assay type: functional, organism-based
Micrococcus luteus [23] = assay: Antibacterial activity against Micrococcus luteus at 6.25 to 200 ug/ml after 24 hrs by microwell dilution method; assay type: functional, organism-based

Compound | Activity (Photorhabdus luminescens [1]) | Activity (Escherichia coli [2]) | Activity (Candida tropicalis) | Activity [3] | Activity (Staphylococcus cohnii [4]) | Activity (Staphylococcus cohnii [5]) | Activity (Klebsiella aerogenes [6]) | Activity (Pichia membranifaciens) | inhibition (Hepacivirus hominis) [%] | Activity (Escherichia coli [7]) | Activity (Staphylococcus aureus [8]) | Activity (Candida parapsilosis) | Activity (Salmonella paratyphi [9]) | Activity (Candida albicans) | Activity (Photorhabdus luminescens [10]) | Activity (Kluyveromyces marxianus) | Activity [11] | Activity (Micrococcus luteus [12]) | Activity (Proteus vulgaris [13]) | Activity (Klebsiella aerogenes [14]) | other results
CC(C(=O)N/N=C/c1ccc(C(F)(F)F)cc1)c1ccc(-c2ccccc2)c(F)c1 (stereo not given) | inactive | inactive | inactive | inactive | inactive | inactive | inactive | inactive | 8 | inactive | inactive | inactive | inactive | inactive | inactive | inactive | inactive | inactive | inactive | inactive | Activity (Nakaseomyces glabratus): inactive; Activity (Proteus vulgaris [15]): inactive; Activity (Pseudomonas aeruginosa [16]): inactive; Activity (Staphylococcus aureus [17]): inactive; Activity [18]: inactive; Activity (Salmonella paratyphi [19]): inactive; Activity (Pseudomonas aeruginosa [20]): inactive; Activity (Micrococcus lylae [21]): inactive; Activity (Aspergillus): inactive; Activity (Micrococcus lylae [22]): inactive; Activity (Micrococcus luteus [23]): inactive
CC(C(=O)NN1C(=O)CSC1c1c(F)cccc1F)c1ccc(-c2ccccc2)c(F)c1 (stereo not given) | inactive | inactive | inactive | inactive | inactive | inactive | inactive | inactive | 8 | inactive | inactive | inactive | inactive | inactive | inactive | inactive | inactive | inactive | inactive | inactive | Activity (Nakaseomyces glabratus): inactive; Activity (Proteus vulgaris [15]): inactive; Activity (Pseudomonas aeruginosa [16]): inactive; Activity (Staphylococcus aureus [17]): inactive; Activity [18]: inactive; Activity (Salmonella paratyphi [19]): inactive; Activity (Pseudomonas aeruginosa [20]): inactive; Activity (Micrococcus lylae [21]): inactive; Activity (Aspergillus): inactive; Activity (Micrococcus lylae [22]): inactive; Activity (Micrococcus luteus [23]): inactive
CC(C(=O)NN1C(=O)CSC1c1cccc(F)c1)c1ccc(-c2ccccc2)c(F)c1 (stereo not given) | inactive | inactive | inactive | inactive | inactive | inactive | inactive | inactive | 8 | inactive | inactive | inactive | inactive | inactive | inactive | inactive | inactive | inactive | inactive | inactive | Activity (Nakaseomyces glabratus): inactive; Activity (Proteus vulgaris [15]): inactive; Activity (Pseudomonas aeruginosa [16]): inactive; Activity (Staphylococcus aureus [17]): inactive; Activity [18]: inactive; Activity (Salmonella paratyphi [19]): inactive; Activity (Pseudomonas aeruginosa [20]): inactive; Activity (Micrococcus lylae [21]): inactive; Activity (Aspergillus): inactive; Activity (Micrococcus lylae [22]): inactive; Activity (Micrococcus luteus [23]): inactive
CC(C(=O)NN1C(=O)CSC1c1ccc([N+](=O)[O-])cc1)c1ccc(-c2ccccc2)c(F)c1 (stereo not given) | inactive | inactive | inactive | inactive | inactive | inactive | inactive | inactive | 8 | inactive | inactive | inactive | inactive | inactive | inactive | inactive | inactive | inactive | inactive | inactive | Activity (Nakaseomyces glabratus): inactive; Activity (Proteus vulgaris [15]): inactive; Activity (Pseudomonas aeruginosa [16]): inactive; Activity (Staphylococcus aureus [17]): inactive; Activity [18]: inactive; Activity (Salmonella paratyphi [19]): inactive; Activity (Pseudomonas aeruginosa [20]): inactive; Activity (Micrococcus lylae [21]): inactive; Activity (Aspergillus): inactive; Activity (Micrococcus lylae [22]): inactive; Activity (Micrococcus luteus [23]): inactive
CC(C(=O)NN1C(=O)CSC1c1ccc(F)cc1)c1ccc(-c2ccccc2)c(F)c1 (stereo not given) | inactive | inactive | inactive | inactive | inactive | inactive | inactive | inactive | 8 | inactive | inactive | inactive | inactive | inactive | inactive | inactive | inactive | inactive | inactive | inactive | Activity (Nakaseomyces glabratus): inactive; Activity (Proteus vulgaris [15]): inactive; Activity (Pseudomonas aeruginosa [16]): inactive; Activity (Staphylococcus aureus [17]): inactive; Activity [18]: inactive; Activity (Salmonella paratyphi [19]): inactive; Activity (Pseudomonas aeruginosa [20]): inactive; Activity (Micrococcus lylae [21]): inactive; Activity (Aspergillus): inactive; Activity (Micrococcus lylae [22]): inactive; Activity (Micrococcus luteus [23]): inactive

— ChEMBL document CHEMBL3046898, “Synthesis and characterization of flurbiprofen hydrazide derivatives as potential anti-HCV, anticancer and antimicrobial agents” (2013)
